The target in one test is T1, G9a (Mus musculus, UniProt Q9Z148).
T1 construct: UNC0642 pre-treated primary neuronal cultures compared to respective controls; endogenous in cells; host or cells: primary mouse cortical neuronal cultures (C57BL/6J embryos)
T1 sequence (Q9Z148 1-1263): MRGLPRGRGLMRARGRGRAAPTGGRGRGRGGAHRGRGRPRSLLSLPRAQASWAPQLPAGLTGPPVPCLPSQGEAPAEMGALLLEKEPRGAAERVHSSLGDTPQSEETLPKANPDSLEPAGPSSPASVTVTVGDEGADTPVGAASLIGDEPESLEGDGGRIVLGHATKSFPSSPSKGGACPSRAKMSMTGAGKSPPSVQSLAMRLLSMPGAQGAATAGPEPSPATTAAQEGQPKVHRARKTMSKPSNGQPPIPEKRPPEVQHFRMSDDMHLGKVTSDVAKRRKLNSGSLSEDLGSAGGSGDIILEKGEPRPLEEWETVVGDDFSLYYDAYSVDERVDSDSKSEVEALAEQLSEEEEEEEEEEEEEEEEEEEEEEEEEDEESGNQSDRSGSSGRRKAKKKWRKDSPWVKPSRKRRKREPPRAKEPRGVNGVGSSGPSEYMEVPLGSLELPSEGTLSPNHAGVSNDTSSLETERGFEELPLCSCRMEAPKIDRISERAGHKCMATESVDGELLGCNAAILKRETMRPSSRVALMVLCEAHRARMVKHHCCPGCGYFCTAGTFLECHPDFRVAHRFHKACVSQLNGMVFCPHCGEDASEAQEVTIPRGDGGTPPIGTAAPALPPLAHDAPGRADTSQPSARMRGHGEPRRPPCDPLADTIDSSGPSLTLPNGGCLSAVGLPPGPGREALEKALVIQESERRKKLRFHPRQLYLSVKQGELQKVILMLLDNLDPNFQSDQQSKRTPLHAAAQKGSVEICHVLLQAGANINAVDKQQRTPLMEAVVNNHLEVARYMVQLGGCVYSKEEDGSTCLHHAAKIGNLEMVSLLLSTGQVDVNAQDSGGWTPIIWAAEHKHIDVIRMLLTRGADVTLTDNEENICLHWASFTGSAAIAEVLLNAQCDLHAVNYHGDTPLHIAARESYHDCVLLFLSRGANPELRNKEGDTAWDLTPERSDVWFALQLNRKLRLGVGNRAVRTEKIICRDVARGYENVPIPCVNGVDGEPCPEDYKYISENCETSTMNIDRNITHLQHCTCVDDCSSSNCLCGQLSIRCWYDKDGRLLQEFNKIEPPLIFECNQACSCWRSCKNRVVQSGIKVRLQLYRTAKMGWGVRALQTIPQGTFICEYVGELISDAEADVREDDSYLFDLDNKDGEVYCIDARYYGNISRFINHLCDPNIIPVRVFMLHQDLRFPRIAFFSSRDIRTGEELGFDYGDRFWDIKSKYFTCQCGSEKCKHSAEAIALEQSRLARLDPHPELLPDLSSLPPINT
The test is described as follows: H3K9me2 / G9a immunofluorescence staining in primary neuronal cultures. Type of test: cell-based. The settings on record: for induction of H3K9me2 in response to glutamate: primary cortical cultures, glutamate toxicity. How it is done:
(§1) For primary cortical cultures pregnant C57BL/6J, or G9afl/fl;Snap25-Cre mice were euthanized. To ensure comparability between genotypes, only embryos from heterozygous breeding's were used. Brainstem tissue of each embryo for genotyping was reserved and cortices were isolated, dissociated and cells were plated at a density of 1 × 10^5 cells per 1 cm^2 on poly-D-lysine-coated wells (5 µM Sigma-Aldrich, cat. no. A-003-M). If not stated otherwise, cells were maintained in neurobasal plus medium (supplemented with B27 plus, penicillin, streptomycin and L-glutamine; Gibco, cat. no. A3582901) at 37°C, 5% CO^2 and a relative humidity of 98%, and treated with 1 µM cytarabine (Sigma-Aldrich, cat. no. BP383) at 1 day in vitro (div) to inhibit glial cell proliferation. If no cytarabine was applied cells were maintained in PNBM medium (supplemented with neural cell survival factor, gentamycin and L-glutamine; Lonza). Throughout, cultures after 14-23 div were used for experiments. G9a inhibitor UNC0642 was used in a concentration of 1 µM and cultures were pre-treated 24 hours before further experimental procedures.
Immunocytochemistry was performed as described previously (15). HiPSC-neurons and mouse neurons were cultivated on 12 mm diameter cover slips or on 96-well plates suited for confocal microscopy, fixed with 4% paraformaldehyde (PFA), incubated in 10% normal donkey's serum (NDS) containing 0.25% Triton X-100, and subsequently immunolabeling was performed. Immunostainings were analyzed with a Zeiss LSM 700 confocal microscope.

For test [1], the system named is primary neuronal cultures. The test is described as follows: Cytosolic calcium imaging of glutamate-exposed neuronal cultures. Format: cell-based, mouse. The settings on record: glutamate-exposed neuronal cultures; UNC0642 pre-treated 24 hours; ferrostatin-1 10 min prior to glutamate. How it is done:
as §1
Primary neuronal cultures were seeded on Ibidi 60 µ-Dish Quad (cat. No. 80411) plates. Cultures were infected with an AAV7 containing pAAV-Syn-GCamp6f-WPRE-SV40 (86) (Addgene 100837) at 7-10 div with a 20,000-fold multiplicity of infection (MOI). AAV particles were produced according to the standard procedures of the UKE vector facility. Images were acquired with a confocal LSM 700 laser scanning confocal microscope (Zeiss) every 0.48 seconds with a 20× magnification in an imaging chamber maintaining 37 °C and 5% CO2. Infected cultures were imaged in the respective culture medium. Before applying the indicated chemicals, 5-10 min of baseline activity was first recorded. At the end of the recording, 8 µM ionomycin was applied to induce the maximum cellular calcium response that was used for normalization. For data analysis, mean fluorescence values of every cell were measured using Fiji software (NIH) and normalized to the maximal calcium response after ionomycin challenge. For each cell, mean AUC of the calcium response was calculated using a custom R script.

The test system of test [2] is primary cortical cultures. Briefly: RealTime-Glo cell viability assay, glutamate excitotoxicity. Format: cell-based, mouse. The settings on record: 20 µM glutamate-stimulated primary cortical cultures; UNC0642 1 µM pre-treated 24 hours. The method, then:
as §1, with “G9a inhibitor UNC0642 was used in a concentration of 1 µM and cultures were pre-treated 24 hours before further experimental procedures.” left out
RealTime-Glo (Promega, cat. no. G9711) MT cell viability substrate and NanoLuc Enzyme was mixed together, added to neuronal cultures and incubated for 5 hours for equilibration of luminescence signal before respective treatments were applied. Luminescence was acquired with a Spark 10M multimode microplate reader (Tecan) at 37°C and 5% CO2 every 30 min over a total time period of 24 hours. […]

Structures are written as SMILES.

Consider `O=C(O)CN(CCOCCOCCN(CC(=O)O)CC(=O)O)CC(=O)O` [EGTA], for which the “induction of H3K9me2 in response to glutamate” value at G9a is given as “potently suppressed the induction of H3K9me2”. Consider `NCCC[C@](N)(C(=O)O)C(F)F` [DFMO, alpha-difluoro-methylornithine], for which, in test [1], the “toxic calcium accumulation (glutamate-induced calcium overload)” value (from here on “toxic calcium accumulation”) is “rescued glutamate-induced calcium overload”. Regarding `NC(CCCP(=O)(O)O)C(=O)O` (stereo not shown) [AP5], the cell viability entry in test [2] is given as “rescued cellular survival”. Further, the “induction of H3K9me2 in response to glutamate” value on G9a is recorded as “potently suppressed the induction of H3K9me2”. Turning to `COC(=O)c1ccc(C2c3[nH]c4ccccc4c3CC(C(=O)OC)N2C(=O)CCl)cc1` (stereo not shown) [RSL3], on G9a (primary cortical neurons, inducer alone vs. control), the “H3K9me2 immunofluorescence after cell death induction” value is on record as “significant upregulation of H3K9me2”.

Turning to `CCOC(=O)c1ccc(NC2CCCCC2)c(N)c1` [ferrostatin-1], the “toxic calcium accumulation” value in test [1] is recorded as “rescued glutamate-induced calcium overload”.

Consider `COC1=C(OC)C(=O)C(C/C=C(\C)CC/C=C(\C)CC/C=C(\C)CC/C=C(\C)CC/C=C(\C)CC/C=C(\C)CC/C=C(\C)CC/C=C(\C)CC/C=C(\C)CCC=C(C)C)=C(C)C1=O` [coenzyme Q10], for which the “toxic calcium accumulation” value in test [1] is listed as “rescued glutamate-induced calcium overload”.

The record behind these values is patent EP4268823A1, “COMPOUND FOR TREATING NEUROINFLAMMATION” (Universitätsklinikum Hamburg-Eppendorf, priority 2022, dated 2023).
